According to publication PMC3752463 (Biochemical and biophysical research communications, 2013):
Square brackets hold non-standard residues; d marks the D form. Ends that are not written are not given here.

Key:
CXCR4 [1] = molecular target: T1, CXCR4 (Homo sapiens, UniProt P61073); details: ref [12], cited from earlier work; for IC50: read-out: IC50 (anti-CXCR4 mAb 12G5 competitive assay), previously reported, anti-CXCR4 mAb 12G5 competitive assay
HIV = details: ref [12]; cited from earlier work
CXCR4 [2] = molecular target: T1, CXCR4; details: 12G5 CXCR4 competitive binding assay

T1 sequence (P61073 whole entry): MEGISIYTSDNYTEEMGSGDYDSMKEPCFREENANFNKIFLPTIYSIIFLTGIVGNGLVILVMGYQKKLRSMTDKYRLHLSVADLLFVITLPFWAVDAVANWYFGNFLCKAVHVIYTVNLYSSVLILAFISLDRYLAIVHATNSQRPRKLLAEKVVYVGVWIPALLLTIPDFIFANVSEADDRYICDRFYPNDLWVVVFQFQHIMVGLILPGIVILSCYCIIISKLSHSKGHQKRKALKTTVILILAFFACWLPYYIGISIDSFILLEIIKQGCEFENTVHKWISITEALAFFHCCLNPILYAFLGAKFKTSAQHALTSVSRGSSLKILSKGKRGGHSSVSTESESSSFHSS

LGASWHRPDK ([dL]G[dA][dS][dW][dH][dR][dP][dD][dK]-NH2; N-terminus assumed; SMILES CC(C)C[C@@H](N)C(=O)NCC(=O)N[C@H](C)C(=O)N[C@H](CO)C(=O)N[C@H](Cc1c[nH]c2ccccc12)C(=O)N[C@H](Cc1c[nH]cn1)C(=O)N[C@H](CCCNC(=N)N)C(=O)N1CCC[C@@H]1C(=O)N[C@H](CC(=O)O)C(=O)N[C@H](CCCCN)C(N)=O) [DV3]
IC50 (CXCR4 [1]): 440 nM

LGASWHRPDKCCLGYQKRPLP [DV1]
CXCR4 binding affinity (in words), earlier work (CXCR4 [1]; in words): moderate binding affinity with CXCR4
anti-HIV entry activity (in words) (HIV): anti-HIV entry activity

LGASWHRPDK [DV3]
CXCR4 binding potency relative to DV1 (CXCR4 [2]): about two-fold less potent than DV1

LGASWHRPDKCCLGYQKRPLP ([dL]G[dA][dS][dW][dH][dR][dP][dD][dK][dC][dC][dL]G[dY][dQ][dK][dR][dP][dL][dP]-NH2; cysteine pairing not given here) [DV1]
IC50 (CXCR4 [1]): 236 nM
